Laboratory results reported in patent publication US4377592A, “Antiarrhythmic activity of cetiedil” (Innothera, priority 1979, dated 1983).
Structures can show the parent of a compound that is named as a salt. Where two headings read alike, the source gives them in different places.

Experiments:
[1] = test system: chloroform-induced ventricular fibrillation; assay: Chloroform-induced ventricular fibrillation in the mouse; type: in vivo
Text: In this technique first described by LAWSON, J. W. in J. Pharm. Exp. Ther. 1968, 160, 22 and Vargaftig, B. B. et al in Eur. J. Pharmacol. 1969, 6, 49, the inhalation of chloroform vapour produced in the mouse apnea followed by ventricular fibrillation.
The mechanism of this technique remains unknown.

[2] = test system: polymorphous arrhythmias induced by adrenaline petrol-ether; assay: Polymorphous arrhythmias induced in the anaesthetised guinea-pig by adrenaline and petrol ether; type: in vivo; conditions: for ED50: Cavia porcellus, ip, read-out: ED50 (dose decreasing by half the duration of the disturbances); for index I = LD50 IV/ED50: Table 1, adrenaline petrol-ether, guinea-pig ED50, mouse LD50; for RELATIVE ACTIVITY: Table 1, relative to cetiedil = 1
Text: Adrenaline in high dosage is a powerful arrhythmogenic stimulus to a myocardia induced by petrol ether, as recognized in the guinea-pig by LE MARECHAL J., Thesis Doct.

in vivo = conditions: mouse, iv
[3] = test system: ventricular fibrillation induced by CaCl2; assay: Calcium (CaCl2) induced ventricular fibrillation in the anaesthetized rat, Malinow's technique; type: in vivo; conditions: for index LD50/AD50 (ventricular fibrillation): Table 2; for RELATIVE ACTIVITY (ventricular fibrillation): Table 2, relative to cetiedil = 1; for RELATIVE ACTIVITY (death): Table 3, relative to cetiedil = 1
Experimental: According to MALINOW, M. R., et coll. Acta. Physiol Latino. Americ.
Using the anaesthetized rat, 200 mg/kg of CaCl2 was injected two minutes after the substances to be tested. The ECG was recorded continuously in lead II.

[4] = test system: chloroform-induced ventricular fibrillation; conditions: mouse, chloroform test, IP; other substances from Linee thesis 1975; cited from earlier work
[5] = test system: rabbit cornea oculo-palpebral reflex; type: in vivo; conditions: for TOTAL DEGREE OF ANAESTHESIA FOR 60 minutes: rabbit cornea, 1.00 g./100, HCl salt, total 13 no anaesthesia, 1300 complete; for local anaesthetic effect compared with cetiedil 0.5%: rabbit
Text: For the purpose of this study, the classical technique of REGNIER J., Thesis Doct. […] This consists of repeating touching of the rabbit cornea until an oculo-palpebral reflex is obtained. It should be noted that […], in common with the reference substances, was used in the form of the HCl Salt.

[6] = test system: isolated guinea-pig atrial; assay: Stimulated isolated guinea pig atrial (technique of Dawes); type: cell-based
Text: (§1) The technique of DAWES (modified by ALLIES ET AL.) was used with the isolated guinea-pig atrial, and the technique of DUCHENE-MARULLAZ, J. Pharmacol. Paris, 1970, 1, 539, in the anaesthetized dog. This method is used to study the permeability of atrio-ventricular conduction, and thus more precisely conduction at the level of Tawara's nod.

rat aortic fragments = assay: Contraction of rat aorta fragment induced by potassium depolarisation; type: cell-based; conditions: mean ± SD, potassium depolarisation
Experimental: Fragments of aorta removed from rats are immersed in survival fluid in the presence of carbogene at 37° C. By modifying the ionic equilibrium of the survival medium, it was possible to study the effects of […] on contraction of the aortic fragments induced by depolarisation with potassium or calcium.

[7] = test system: ventricular tachycardia induced by Ouabain; assay: Ouabain induced ventricular tachycardia in the dog (Lucchesi and Hardman); type: in vivo; conditions: at the average effective dose
Text: The method used is that of […] and HARDMAN, J. Pharmacol. Exp. Ther. 1961, 132, 372-381. Ventricular tachycardia was obtained by the sequential administration of Ouabain until a permanent ventricular tachycardia developed. Following observation of the effect of the substance, the reappearance of this ventricular tachycardia following the injection of insulin was confirmed, thereby showing the persistence within the heart of a toxic dose of Ouabain (Average dose of Ouabain 71.25 γ kg IV).

[8] = test system: atrio-ventricular conduction; assay: Atrio-ventricular conduction in the anaesthetized dog (Duchene-Marullaz); type: in vivo
Text: as §1

[9] = Rattus norvegicus, iv, read-out: AD50 protection against death
[10] = Rattus norvegicus, iv, read-out: AD 50 protection against ventricular fibrillation
[11] = mouse, chloroform vapour inhalation, IP, read-out: ED50
[12] = guinea-pig, urethane 1.2 g/kg IP, substance 5 minutes before intoxication
[13] = anaesthetized rat, CaCl2 200 mg/kg IV two minutes after substance, read-out: AD 50 protection against ventricular fibrillation

With CC[C@H]1[C@@H]2C[C@H]3[C@@H]4N(C)c5ccccc5[C@]45C[C@@H]([C@H]2[C@H]5O)N3[C@@H]1O [Ajmaline] the ED50 ([1]; Mus musculus, ip) was 6.6 mg/kg, the ED50 [2] was 0.6 mg/kg and the “index I = LD50 IV/ED50” value [2] was 43.33. For the same compound, the “RELATIVE ACTIVITY” value [2] was 0.91, the LD50 (in vivo) was 26 mg/kg and the ED50 [3, 9] was over 5 mg/kg. For the same compound, the ED50 [3, 10] was 2.25 mg/kg, the “index LD50/AD50 (ventricular fibrillation)” value [3] was 11,56 and the “RELATIVE ACTIVITY (ventricular fibrillation)” value [3] was 0,62. For the same compound, the protection against death ([3]; rat, dose of 5 mg/kg) was “none against death” and the “protection against ventricular fibrillation” value ([3]; rat, dose of 5 mg/kg) was “protected all of the animals against ventricular fibrillation”.

For CN1[C@@H]2CC[C@H]1C[C@@H](OC(=O)C(CO)c1ccccc1)C2 (stereo partly drawn) [Atropine], the ED50 [4] is given as 100 mg/kg IP.

For COC(=O)[C@H]1[C@@H](OC(=O)c2ccccc2)C[C@@H]2CC[C@H]1N2C [COCAINE], the “TOTAL DEGREE OF ANAESTHESIA FOR 60 minutes” value [5] was 706.4 and the “local anaesthetic effect compared with cetiedil 0.5%” value ([5]; 1 p.100) was “same effect”.

With CC(C)N(CCC(C(N)=O)(c1ccccc1)c1ccccn1)C(C)C (stereo not drawn) [DISOPYRAMIDE] the “% DECREASE SPONTANEOUS RATE” value ([6]; concentration 10^-5) was 8%, the “% DECREASE m.f.s. (maximum frequency followed by the atrial)” value ([6]; concentration 10^-5) was 18% and the “% DECREASE SPONTANEOUS RATE” value ([6]; concentration 10^-6) was 6%. For the same compound, the “% DECREASE m.f.s. (maximum frequency followed by the atrial)” value ([6]; concentration 10^-6) was 6%.

For CN(C)CCCN1c2ccccc2CCc2ccccc21 [Imipramine], the ED50 [4] is listed as 30 mg/kg IP.

In the case of CCN(CC)CCOC(=O)c1ccc(N)cc1 [PROCAINE], the “TOTAL DEGREE OF ANAESTHESIA FOR 60 minutes” value [5] is reported as 61.5, the “local anaesthetic effect compared with cetiedil 0.5%” value ([5]; 1 p.100) is reported as “only half less active” and the “pD'2 (mean)” value (rat aortic fragments) is reported as 2.55 ± 0.06.

With CCN(CC)CCNC(=O)c1ccc(N)cc1 [Procainamide] the ED50 [1, 11] was 80 mg/kg, the ED50 [2, 12] was 1.4 mg/kg and the “index I = LD50 IV/ED50” value [2] was 75.00. For the same compound, the “RELATIVE ACTIVITY” value [2] was 1.58, the LD50 (in vivo) was 105 mg/kg and the ED50 [3, 9] was 17 mg/kg. The “index LD50/AD50 (ventricular fibrillation)” value [3] was 7,24, the “RELATIVE ACTIVITY (ventricular fibrillation)” value [3] was 0,39 and the “index LD50/AD50 (death)” value ([3]; Table 3) was 6.18. For the same compound, the “RELATIVE ACTIVITY (death)” value [3] was 0.38 and the ED50 [3, 13] was 14.5 mg/kg.

For CC(C)NCC(O)COc1cccc2ccccc12 (stereo not drawn) [Propranolol], the ED50 [2, 12] was 0.38 mg/kg, the “RELATIVE ACTIVITY” value [2] was 1.22 and the ED50 [3, 9] was 3.9 mg/kg. For the same compound, the “RELATIVE ACTIVITY (ventricular fibrillation)” value [3] was 0,36, the “RELATIVE ACTIVITY (death)” value [3] was 0.35 and the ED50 [3, 13] was 3.25 mg/kg. For the same compound, the “TOTAL DEGREE OF ANAESTHESIA FOR 60 minutes” value [5] was 876.5, the “local anaesthetic effect compared with cetiedil 0.5%” value ([5]; in vivo) was “same effect” and the “% DECREASE m.f.s. (maximum frequency followed by the atrial)” value ([6]; concentration 10^-6) was 34%. The “% DECREASE m.f.s. (maximum frequency followed by the atrial)” value ([6]; concentration 10^-7) was 7%.

For C=C[C@H]1C[N@@]2CC[C@H]1C[C@@H]2[C@@H](O)c1ccnc2ccc(OC)cc12 [Quinidine sulfate, reference compound], the “duration of return to sinus rhythm” value [7] was “less than 30 min”.

Compound C=C[C@H]1C[N@@]2CC[C@H]1C[C@@H]2[C@@H](O)c1ccnc2ccc(OC)cc12 [Quinidine] has an ED50 [1, 11] of 26 mg/kg, an LD50 (in vivo) of 67 mg/kg and an ED50 [3, 9] of 8 mg/kg. The ED50 [3, 10] was 5.5 mg/kg, the “effect on atrio-ventricular conduction after denervation” value ([8]; anaesthetized dog, denervated) was “Depression of atrio-ventricular conduction is significant and proportional to the dose administered” and the “effect on atrio-ventricular conduction” value ([8]; anaesthetized dog, intact) was “not changed in the intact animal”. For the same compound, the chronotropic effect ([8]; dog) was “positive or negative action according to whether the dog is intact or denervated”, the “% DECREASE SPONTANEOUS RATE” value ([6]; concentration 10^-5) was 15% and the “% DECREASE m.f.s. (maximum frequency followed by the atrial)” value ([6]; concentration 10^-5) was 25%. For the same compound, the “% DECREASE SPONTANEOUS RATE” value ([6]; concentration 10^-6) was 3%, the “% DECREASE m.f.s. (maximum frequency followed by the atrial)” value ([6]; concentration 10^-6) was 10% and the “% DECREASE SPONTANEOUS RATE” value ([6]; concentration 10^-7) was 0%.

In the case of COC(=O)[C@@H]1[C@H]2C[C@H]3c4[nH]c5ccccc5c4CCN3C[C@@H]2CC[C@@H]1O [Yohimbine], the ED50 [4] is listed as 10 mg/kg IP.
